Laboratory results published in patent US20260000600A1, “PHARMACEUTICAL COMPOSITION FOR PREVENTING OR TREATING INFLAMMATORY DISEASES COMPRISING PEGYLATED BILIRUBIN” (BILIX CO., LTD., priority 2022, published 2026).

Key:
[1] = tested on: IMQ-induced psoriasis mouse model; experiment: IMQ-induced psoriasis mouse model; assay type: in vivo, C57BL/6 male mouse; conditions: 0.05% Clobetasol propionate, 62.5 mg/animal, topical daily; Vehicle 10.50±0.47
Description: An IMQ-induced psoriasis mouse model was created by applying Aldara™ (imiquimod, IMQ) cream to the back skin of an 8-week-old C57BL/6 male mouse a total of 7 times from Day 0 to Day 6. With respect to a normal group in which IMQ cream was not applied (Normal group), as negative control groups, a group in which no additional substances were applied in the process of inducing psoriasis (No Treatment group) and a group in which excipients were applied to the skin (Vehicle group), and as a positive control group, a group in which the previously-approved drug Betabate was applied (Clobetasol propionate group, 0.05% Clobetasol propionate, 62.5 mg/animal), the test substance Brixelle (30 mg/kg) was applied to the skin every day from Day 0, thus to evaluate its effectiveness. Clinical symptoms were evaluated during the process of inducing psoriasis, and skin tissues were secured after the survival test was completed for further analysis.
To quantify the clinical symptoms of psoriasis, for three (3) clinical index items including 1) erythema (redness), 2) scaling and 3) skin thickness, a clinical score was measured on a scale out of 4 (modified psoriasis area and severity index, PASI). […] The results of the graph were expressed as mean±SEM. […]

[2] = tested on: HDM-induced atopic dermatitis mouse model; experiment: HDM-induced atopic dermatitis mouse model (2), comparison with approved drugs; assay type: in vivo, NC/Nga female mice; conditions: 0.1% Dexamethasone, 62.5 mg/animal
Procedure: (§1) An HDM-induced atopic dermatitis mouse model was created by applying HDM antigen ointment to the back and ear skin of 6 to 10-week-old NC/Nga female mice a total of 7 times on Days 0, 7, 10, 14, 17, 21 and 24. […] Clinical symptoms were evaluated during the process of inducing atopic dermatitis, and skin tissues were secured after the survival test was completed for further analysis.
(§2) To quantify the clinical symptoms of atopic dermatitis, for four (4) clinical index items including 1) erythema/hemorrhage, 2) scarring/dryness, 3) edema and 4) excoriation/maceration (erosion), a clinical score was measured on a Likert scale out of 3. H&E staining was performed to observe histological changes in the skin for atopic dermatitis, while dihydroethidium (DHE) staining was performed to measure ROS in skin tissues. Further, in order to identify the mast cells and eosinophils infiltrated in the skin tissues, Toluidine blue staining and Congo red staining were performed, respectively. To measure IL-4 and IL-13, which are inflammatory mediators known to be highly related to atopic dermatitis, ELISA was performed on the skin tissues. The results of the graph were expressed as mean±SEM. The statistical analysis was performed using the GraphPad program to confirm statistical significance with the Vehicle group through one-way ANOVA, followed by Dunnett's multiple comparison method (*p<0.05, **p<0.01, ***p<0.001, ****p<0.0001).

[3] = tested on: HDM-induced atopic dermatitis mouse model; experiment: HDM-induced atopic dermatitis mouse model (1), dose dependence; assay type: in vivo, NC/Nga female mice; conditions: 0.1% Dexamethasone, 62.5 mg/animal
Procedure: as §1
as §2, with “respectively.” for “respectively. To measure IL-4 and IL-13, which are inflammatory mediators known to be highly related to atopic dermatitis, ELISA was performed on the skin tissues.”

[4] = tested on: DNFB-induced contact dermatitis mouse model; experiment: DNFB-induced contact dermatitis mouse model; assay type: in vivo, C57BL/6 NC/Nga male mice; conditions: 0.1% Dexamethasone, 62.5 mg/animal, topical daily; Vehicle 0.94±0.01
Description: A DNFB-induced contact dermatitis mouse model was created using 6 to 10-week-old C57BL/6 NC/Nga male mice and Mouse 2, 4 Dinitrofluorobenzene (DNFB). On Days 0 and 1, 0.5% DNFB solution (acetone:olive oil=4:1) was applied to the back skin to sensitize them, and then on Day 7, 0.3% DNFB solution was applied to the ear skin to induce contact dermatitis. With respect to a normal group in which the DNFB solution was not applied (Normal group), as negative control groups, a group in which no additional substances were applied in the process of inducing contact dermatitis (No Treatment group) and a group in which excipients were applied to the skin (Vehicle group), and as a positive control group, a group in which the previously-approved drug Maxidex was applied (Dexamethasone group, 0.1% Dexamethasone, 62.5 mg/animal), the test substance Brixelle (30 mg/kg) was applied to the skin every day from Day 0, thus to evaluate its effectiveness. Clinical symptoms were evaluated during the process of inducing contact dermatitis, and skin tissues were secured after the survival test was completed for further analysis.
Ear thickness was measured to evaluate edema, a clinical symptom of contact dermatitis. […] The results of the graph were expressed as mean±SEM. […]

Row | Structure (SMILES) | clinical score (modified PASI) [1] | clinical score (atopic dermatitis) ([2]; topical daily from Day 7, Vehicle 9.58±0.64) | eosinophil infiltration (Congo red staining) ([2]; Vehicle 40.06±5.95) | mast cell infiltration (Toluidine blue staining) ([2]; Vehicle 56.81±1.99) | clinical score (atopic dermatitis) ([3]; topical daily from Day 7, Vehicle 9.44±0.77, mean±SEM) | eosinophil infiltration (Congo red staining) ([3]; Vehicle 35.50±1.37) | mast cell infiltration (Toluidine blue staining) ([3]; Vehicle 52.69±2.19) | thickness of the ear skin [4]
1 | CCC(=O)O[C@]1(C(=O)CCl)[C@@H](C)C[C@H]2[C@@H]3CCC4=CC(=O)C=C[C@]4(C)[C@@]3(F)[C@@H](O)C[C@@]21C [Clobetasol propionate] | 7.25±0.21 |  |  |  |  |  |  | 
2 | C[C@@H]1C[C@H]2[C@@H]3CCC4=CC(=O)C=C[C@]4(C)[C@@]3(F)[C@@H](O)C[C@]2(C)[C@@]1(O)C(=O)CO [Dexamethasone] |  | 3.75±0.99 | 10.25±2.56 | 20.69±5.25 | 4.90±0.76 | 18.88±1.64 | 27.38±3.19 | 0.67±0.02
